Laboratory results as given in US9856225B2, “Substituted phenazines as antimicrobial agents” (University of Florida Research Foundation, Incorporated, priority 2013, dated 2018).
Several values for one entry are separate records, joined by “and”; a condition that tells them apart may be missing. Equal values may be shown once. Entries after “also recorded” stand apart in the source; their conditions may differ. Read-outs that look alike come from different tables or passages of the source. Marks after values point to notes of the source that are not given here.

Key:
Format in all cases: cell-based
[1] = tested on: Acinetobacter baumannii (ATCC 19606); test: Planktonic growth (OD600) in biofilm inhibition assay; conditions: for increase in planktonic growth: OD600; for inhibition of growth at 100 µM: Acinetobacter baumannii, ATCC19606, 24 h, read-out: % Growth Inhibition at 100 μM
Procedure: Each well was inoculated with ˜7×10^6 colony forming units per milliliter (corresponding to an OD600 of 0.01 prepared directly from an overnight culture). A lid was placed on the 96-well plate which was wrapped in suran wrap, placed in a humidifying chamber and incubated under static conditions at 37° C. for 24 hours. Following incubation, the media and planktonic bacteria were then removed from 96-well plates and the wells were then washed with water. The bacterial biofilms within the microtiter wells were stained with 200 μL of an aqueous 0.1% crystal violet solution that was allowed to stand for 10-20 minutes. The crystal violet stain was then removed, the wells were rinsed with water and dried. The crystal violet stain that remained on the inside of the wells (i.e., stained bacterial biofilm) on the inside of the wells was solubilized by the addition of 200 μL ethanol and absorbance was read at OD540 using a spectrophotometer. […] Single data points for all compounds and DMSO controls were tested in two replicate rows in 96-well plates and corresponding absorbance readings were averaged for the quantification of planktonic growth and biofilm formation. Reported percent biofilm inhibition was determined by the comparison of compound treated wells (the average of the two replicate wells) versus vehicle control wells without compound following background subtraction (i.e., an empty, untreated well) and reported from 2 to 4 independent overnight cultures. DMSO was serially diluted at the same concentration as test compounds with a top concentration of 1% v/v.
(§1) The bromophenazines were also evaluated against the Gram-negative bacterium Acinetobacter baumannii in order to identify biofilm modulating small molecules against this emerging pathogen. Acinetobacter baumannii is notorious for its ability to persist as bacterial biofilms on hospital surfaces, giving rise to many multidrug-resistant nosocomial infections. Clinical isolates of A. baumannii have been identified that are resistant to every class of antibiotic clinically used. The bromophenazines were evaluated against Acinetobacter baumannii ATCC 19606 in biofilm inhibition assays. Bromophenazines were allowed to incubate in 96-well plates with Acinetobacter baumannii (˜7×10^6 CFUmL^−1 by adjusting an overnight culture to an OD600˜0.01) for 24 hours at 37° C. using Mueller-Hinton broth followed by spectrophometer readings of each plate to evaluate planktonic growth (OD600) and biofilm formation (OD540 after crystal violet stain of biofilms inside microtiter wells). […] This biofilm inhibition with activation of planktonic growth activity was dose-dependent with bromophenazine 17a (see FIG. 20).

[2] = tested on: Staphylococcus aureus (ATCC 25923) biofilm; test: Biofilm inhibition, crystal violet staining; parameters: MIC/IC50 Biofilm: unit not given here; conditions: for IC50: Staphylococcus aureus; for MIC/IC50 Biofilm: ratio of MIC to IC50 of biofilm inhibition; for Phenotype: planktonic growth vs biofilm formation
Procedure: Biofilm Inhibition Protocol for S. aureus (ATCC 25923). A serial two-fold dilution of 2× bromophenazine small molecule concentration was made in 100 μL tryptic soy broth (TSB) medium with 0.5% glucose were delivered into 0.1% gelatin (Millipore) coated 96-well tissue culture plates. […] To each well, 100 μL of TSB with 0.5% glucose containing 2×10^6 CFU/mL Staphylococcus aureus cells, prepared from fresh culture (OD600 of 0.8), was added. The plates were incubated at 37° C. for 24 hours. The wells were gently rinsed by submerging the entire plates in a tub of cold, running tap water. The wells were then fixed with 200 μL methanol for 15 minutes. After the plates were air dried, the biofilms were stained with 100 μL of 1% crystal violet for 10 minutes. The plates were again rinsed with running water. After drying in air, quantitative assessment of biofilm formation was obtained by extracting the crystal violet associated with the remaining biofilm with 100 μL per well of the following bleaching solution (methanol:glacial acetic acid:water (v/v/v)=4:1:5). This bleaching solution dissolved the bound crystal violet and produced a violet-colored solution in each well. The intensity of coloration was determined by measuring the absorbance at 540 nm.

[3] = tested on: Staphylococcus aureus (ATCC 25923); test: MIC broth microdilution (CLSI), Luria Broth
Procedure: (§2) Antibiotic Susceptibility Tests (MIC Assay Protocol). The minimum inhibitory concentration (MIC) for each compound described herein was determined by the broth microdilution method as recommended by the Clinical and Laboratory Standards Institute (CLSI) (Clinical and Laboratory Standards Institute. 2009. Methods for dilution antimicrobial susceptibility tests for bacteria that grow aerobically; approved standard, eighth edition (M7-A8)). In a 96-well plate, eleven two-fold serial dilutions of each compound were made in a final volume of 100 μL Luria Broth (one column served as a blank; see the MIC assay described herein). Each well was inoculated with 10^5 bacterial cells at the initial time of incubation, prepared from a fresh log phase culture (OD600 of 0.5). […] The concentration range tested for each compound during this study was 0.10 to 100 μM. DMSO served as the vehicle and negative control in each microdilution MIC assay. DMSO was serially diluted at the same concentration as the compounds with a top concentration of 1% v/v. Bacterial strains used: Staphylococcus aureus (ATCC 25923), Staphylococcus epidermidis (ATCC 12228) and Pseudomonas aeruginosa (PAO1). Kanamycin was used as a positive control against Staphylococcus aureus and Staphylococcus epidermidis.

[4] = tested on: Acinetobacter baumannii (ATCC 19606) biofilm; test: Biofilm inhibition, Mueller-Hinton broth, crystal violet; conditions: for inhibition at 100 µM: Acinetobacter baumannii
Procedure: Biofilm Inhibition Protocol for A. baumannii (ATCC 19606): In a 96-well plate, ten two-fold serial dilutions of each compound tested were made from the highest concentration tested (100 μM) in a final volume of 100 μL in Mueller-Hinton broth (one column served as a blank). Each well was inoculated with ˜7×10^6 colony forming units per milliliter (corresponding to an OD600 of 0.01 prepared directly from an overnight culture). A lid was placed on the 96-well plate which was wrapped in suran wrap, placed in a humidifying chamber and incubated under static conditions at 37° C. for 24 hours. Following incubation, the media and planktonic bacteria were then removed from 96-well plates and the wells were then washed with water. The bacterial biofilms within the microtiter wells were stained with 200 μL of an aqueous 0.1% crystal violet solution that was allowed to stand for 10-20 minutes. The crystal violet stain was then removed, the wells were rinsed with water and dried. The crystal violet stain that remained on the inside of the wells (i.e., stained bacterial biofilm) on the inside of the wells was solubilized by the addition of 200 μL ethanol and absorbance was read at OD540 using a spectrophotometer. NOTE: The concentration range tested for each compound was 0.2-100 μM. Single data points for all compounds and DMSO controls were tested in two replicate rows in 96-well plates and corresponding absorbance readings were averaged for the quantification of planktonic growth and biofilm formation. Reported percent biofilm inhibition was determined by the comparison of compound treated wells (the average of the two replicate wells) versus vehicle control wells without compound following background subtraction (i.e., an empty, untreated well) and reported from 2 to 4 independent overnight cultures. DMSO was serially diluted at the same concentration as test compounds with a top concentration of 1% v/v.
as §1

[5] = tested on: Staphylococcus epidermidis (ATCC 12228); test: MIC broth microdilution (CLSI), Luria Broth; conditions: ATCC12228, Table 1, ATCC 12228, read-out: Staphylococcus epidermidis MIC
Procedure: as §2

[6] = A. baumannii ATCC 19606, 100 μM, * = no growth inhibition at 200 μM
[7] = ATCC25923, S. aureus ATCC 25923, single replicate screen, read-out: Biofilm Inhibition IC50
[8] = Staphylococcus aureus, ATCC25923, Table 2, S. aureus ATCC 25923, Luria Broth, read-out: MIC
[9] = ATCC19606, A. baumannii ATCC 19606, 100 μM, read-out: % Biofilm Inhibition at 100 μM
[10] = Staphylococcus aureus, ATCC25923, Table 1, ATCC 25923, range tested 0.10 to 100 μM, read-out: Staphylococcus aureus MIC
[11] = Staphylococcus aureus, ATCC25923, Table 1, ATCC 25923, read-out: Staphylococcus aureus MIC

| IC50 [2, 7] [µM] | MIC/IC50 Biofilm ([2]; S. aureus ATCC 25923) | MIC [3, 8] [µM] | SMILES | inhibition of growth at 100 µM [1, 6] [%] | inhibition at 100 µM [4, 9] [%] | Phenotype ([2]; S. aureus ATCC 25923) | also measured |
| --- | --- | --- | --- | --- | --- | --- | --- |
| 14.8 | >6.8 | > 100 | O=C(/C=C/c1ccccc1)Oc1c(Br)cc(Br)c2nc3ccccc3nc12 [Compound 9a] | -18 ± 4 | 52 ± 5 | – | increase in planktonic growth ([1]; 100 μM): ~15%; planktonic growth inhibition at 200 μM [1]: did not inhibit planktonic growth |
| 1.3 | 9.6 | – | O=C(Oc1c(Br)cc(Br)c2nc3ccccc3nc12)c1ccc(C(F)(F)F)cc1 [Compound 16a] | -3 ± 2 | 29 ± 11 | antibacterial | – |
| 1.1 | 11.4 | – | O=C(Oc1c(Br)cc(Br)c2nc3ccccc3nc12)c1cc(C(F)(F)F)cc(C(F)(F)F)c1 [Compound 17a] | -15 ± 3 | 60 ± 8 | antibacterial | increase in planktonic growth ([1]; 100 μM): ~15%; planktonic growth inhibition at 200 μM [1]: did not inhibit planktonic growth; planktonic growth while biofilm formation is inhibited (in words) ([1]; Mueller-Hinton broth, FIG. 20): dose-dependent increases in planktonic growth |
| > 100 | – | > 100 | Cc1cc(C)c(C(=O)Oc2c(Br)cc(Br)c3nc4ccccc4nc23)c(C)c1 [Compound 19a] | -14 ± 2 | 44 ± 10 | inactive | increase in planktonic growth ([1]; 100 μM): ~15%; planktonic growth inhibition at 200 μM [1]: did not inhibit planktonic growth |
| 0.95 | >105 | > 100 | COc1ccc(C(=O)Oc2c(Br)cc(Br)c3nc4ccccc4nc23)cc1 [Compound 20a] | -6 ± 4 | 17 ± 5 | – | IC50 ([2]; ATCC25923, S. aureus, three independent experiments, read-out: Biofilm inhibition IC50 (triplicate)): 10.3 µM; Phenotype ([4]; A. baumannii ATCC 19606): inactive |
| > 100 | – | > 100 | O=C(Oc1c(Br)cc(Br)c2nc3ccccc3nc12)c1ccc2ccccc2c1 [Compound 21a] | -15 ± 6 | 35 ± 9 | inactive | increase in planktonic growth ([1]; 100 μM): ~15%; planktonic growth inhibition at 200 μM [1]: did not inhibit planktonic growth |
| > 100 | – | > 100 | O=C(Oc1c(Br)cc(Br)c2nc3ccccc3nc12)c1ccc2c(c1)OCO2 [Compound 22a] | -14 ± 5 | 29 ± 4 | – | – |
| 2.44 | 0.6 | 1.56 | O=C(Oc1c(Br)cc(Br)c2nc3ccccc3nc12)c1ccc(F)cc1 [Compound 24, 2,4-Dibromophenazin-1-yl 4-fluorobenzoate] | -16 ± 6 | 35 ± 4 | antibacterial | MIC [3, 10]: 1.56 µM; MIC [3, 11]: 0.74 mg/L |
| 0.79 | >127** | > 100 | O=C(Oc1c(Br)cc(Br)c2nc3ccccc3nc12)c1cccs1 [Compound 24a] | -10 ± 7 | 32 ± 8 | antibacterial; also recorded: antibacterial** | MIC ([3]; Table 2, S. aureus ATCC 25923, Luria Broth): >100** μM |
| – | – | – | CN(C)C(=O)Oc1c(Br)cc(Br)c2nc3ccccc3nc12 [Compound 25a] | – | – | – | inhibition of growth at 100 µM [1]: -3 ± 1%; IC50 ([2]; ATCC25923, read-out: Biofilm Inhibition IC50): > 100 µM; MIC ([3]; Staphylococcus aureus, ATCC25923): > 100 µM; inhibition at 100 µM ([4]; ATCC19606, read-out: % Biofilm Inhibition at 100 μM): 15 ± 1% |
| > 100 | – | > 100 | O=C(Oc1c(Br)cc(Br)c2nc3ccccc3nc12)C1CCCCC1 [Compound 26, 2,4-Dibromophenazin-1-yl cyclohexanecarboxylate] | -25 ± 5 | 11 ± 1 | inactive | MIC [3, 10]: > 100 µM; MIC [3, 11]: > 46.5 mg/L; Phenotype ([4]; A. baumannii ATCC 19606): inactive |
| – | – | – | COc1c(Br)cc(Br)c2nc3ccccc3nc12 [Compound 27, 2,4-Dibromo-1-methoxyphenazine] | – | – | – | MIC [3, 10]: > 100 µM; MIC [3, 11]: > 36.9 mg/L |
| > 100 | – | > 100 | CS(=O)(=O)Oc1c(Br)cc(Br)c2nc3ccccc3nc12 [Compound 29a] | 3 ± 3 | 1 ± 2 | – | Phenotype ([4]; A. baumannii ATCC 19606): inactive |
| – | – | – | NC[C@H]1O[C@H](O[C@H]2[C@H](O)[C@@H](O[C@H]3O[C@H](CO)[C@@H](O)[C@H](N)[C@H]3O)[C@H](N)C[C@@H]2N)[C@H](O)[C@@H](O)[C@@H]1O [Kanamycin, reference compound] | – | – | – | MIC [5]: 0.78 µM to 1.56 µM and 0.38 µg/mL to 0.76 µg/mL; MIC [3, 10]: 1.56 to 6.25 µM; MIC [3, 11]: 0.76 to 3.03 mg/L |

| SMILES | IC50 [2, 7] [µM] | MIC/IC50 Biofilm ([2]; S. aureus ATCC 25923) | MIC [3, 8] [µM] | inhibition of growth at 100 µM [1, 6] [%] | inhibition at 100 µM [4, 9] [%] | Phenotype ([2]; S. aureus ATCC 25923) | also measured |
| --- | --- | --- | --- | --- | --- | --- | --- |
| O=C(Oc1c(Br)cc(Br)c2nc3ccccc3nc12)N(c1ccccc1)c1ccccc1 [Compound 26a] | > 100 | – | > 100 | -22 ± 8 | 40 ± 2 | inactive | – |
